Experiment: Pharmacokinetics in mice after oral administration, plasma and brain by LC/MS/MS
Conditions: 30 mg/kg CuXTSM API oral; for Brain AUC0-24h / Brain AUC0-inf / Brain Cmax / Brain Tmax / Brain t½ (number of time points): mouse brain; for Brain t½ (number of time points) / Plasma t½ (number of time points): bracket = number of time points; for Plasma Ke / Plasma MRT / Plasma AUC0-24h / Plasma AUC0-inf / Plasma Cmax / Plasma Tmax / Plasma t½ (number of time points): mouse plasma; for Plasma AUC0-24h / Plasma AUC0-inf / Plasma Cmax / Plasma Tmax: CuATSM in SSV, NCDs in water
Protocol: CuATSM was suspended in “Standard Suspension Vehicle” (SSV), consisting of 0.9% (w/v) NaCl, 0.5% (w/v) sodium carboxymethylcellulose, 0.5% (v/v) benzyl alcohol, and 0.4% (v/v) Tween 80 in deionized water. All other test compounds were suspended in sterile water. Samples were prepared by adding one of the compounds to the liquid vehicle (water or SSV) in a vial and then vortexing the mixture for 3 min with a stir bar inside. If the powdered sample was not completely wetted or not completely suspended, the sample was vortexed for another minute. If wetting was still incomplete, the vial was sonicated until a fully wetted suspension was obtained. Between doses, the sample was stirred on medium speed and then vortexed for an additional 20 s immediately before the next dose was removed from the vial. All dosing was completed from a single preparation of the suspension within 60 min of adding the compound to water or SSV.
Mice were deprived of pelleted food overnight, during which time 10% dextrose, as Dextroput, was provided in tap water, after which the test items were administrated orally by gavage in water or SSV. […] The blood samples were kept on ice after sampling and centrifuged at +4° C., 1800×g for 5 min to prepare plasma. Plasma samples were extracted and transferred into pre-labelled Eppendorf test tubes (50 μl exact in one vial, and the remaining in a second vial) and frozen at −20° C. The samples were transported on dry ice to the analysis site. Following blood sampling, mice were euthanized by cervical dislocation, and then brains were collected through opened skulls. The brains were weighed and placed in test tubes and placed on water ice. Phosphate-buffered saline (PBS, pH 7.4), 4 ml per 1 g of brain tissue, was added to the test tube and brains were homogenized by using Ultra-Turrax T25 homogenizer/S25N-10G (Setting 2, 9500 rpm, approximately 10 s). The homogenate was frozen at −20° C. immediately after homogenization. The samples were transported on dry ice to the analysis site.
Dosed mice were studied in triplicate for each of the seven time points, totaling 21 mice dosed for each studied compound. Plasma samples and brain homogenates from four untreated animals were also obtained. The plasma samples were thawed at room temperature (RT), mixed with 2-fold volume of acetonitrile, shaken and centrifuged for 10 min at 13 000×g (Heraeus Pico 17 centrifuge), after which supernatants were transferred into glass vials. The brain homogenate samples were mixed with 2-fold volume of acetonitrile:methanol, shaken, ultrasonicated for 20 min, and centrifuged for 10 min at 13 000×g (Heraeus Pico 17 centrifuge), after which supernatants were transferred into glass vials. […] Quality control (QC) samples were prepared for concentrations 10, 100 and 1000 ng/ml in plasma or brain homogenates.
Elution was with gradient of 0.5% formic acid/acetonitrile (99:1) increased step-wise to (5:95).
The pharmacokinetic parameters for study compounds in plasma and brain were calculated using standard non-compartmental methods. The elimination phase half-life (t½) was calculated by least-squares regression analysis of the terminal linear part of the log concentration-time curve. […] The maximum concentration (Cmax) and the time to Cmax (Tmax) were derived directly from the concentration data. Mean Residence Time, MRT, and elimination rate constant, Ke, were also calculated from the concentration vs. time data of plasma samples.

SMILES | Brain AUC0-24h | Brain AUC0-inf | Brain Cmax | Brain Tmax | Brain t½ (number of time points) | Plasma Ke | Plasma MRT | Plasma AUC0-24h | Plasma AUC0-inf | Plasma Cmax | Plasma Tmax | Plasma t½ (number of time points) | Brain:plasma-ratio (Cmax-based) (mouse)
CNC1=NN=C(C)C(C)=NN=C(NC)[S][Cu][S]1.O=C(O)CC(O)(CC(=O)O)C(=O)O [CuATSM:citric acid (1:1)] | 15435 ng·min/g | 15563 ng·min/g | 77.0 ng/g | 1 h | 218 (4) min | 0.0034 min⁻¹ | 5.25 h | 8292 ng·min/mL | 8366 ng·min/mL | 14.5 ng/mL | 1 h | 204 (3) min | –
CNC1=NN=CC(C)=NN=C(NC)[S][Cu][S]1.O=C1NS(=O)(=O)c2ccccc21.O=C1NS(=O)(=O)c2ccccc21 [CuPTSM:saccharin (1:2)] | 62832 ng·min/g | 72025 ng·min/g | 189 ng/g | 0.5 h | 487 (2) min | 0.0016 min⁻¹ | 7.9 h | 60004 ng·min/mL | 68278 ng·min/mL | 91.5 ng/mL | 1 h | 439 (2) min | 2.1
